These compounds were tested against T1, Peroxisome proliferator-activated receptor gamma (Mus musculus, UniProt P37238) (assay: Displacement of [3H]rosiglitazone from mouse PPARgamma receptor by scintillation proximation assay).
T1 sequence (P37238 whole entry): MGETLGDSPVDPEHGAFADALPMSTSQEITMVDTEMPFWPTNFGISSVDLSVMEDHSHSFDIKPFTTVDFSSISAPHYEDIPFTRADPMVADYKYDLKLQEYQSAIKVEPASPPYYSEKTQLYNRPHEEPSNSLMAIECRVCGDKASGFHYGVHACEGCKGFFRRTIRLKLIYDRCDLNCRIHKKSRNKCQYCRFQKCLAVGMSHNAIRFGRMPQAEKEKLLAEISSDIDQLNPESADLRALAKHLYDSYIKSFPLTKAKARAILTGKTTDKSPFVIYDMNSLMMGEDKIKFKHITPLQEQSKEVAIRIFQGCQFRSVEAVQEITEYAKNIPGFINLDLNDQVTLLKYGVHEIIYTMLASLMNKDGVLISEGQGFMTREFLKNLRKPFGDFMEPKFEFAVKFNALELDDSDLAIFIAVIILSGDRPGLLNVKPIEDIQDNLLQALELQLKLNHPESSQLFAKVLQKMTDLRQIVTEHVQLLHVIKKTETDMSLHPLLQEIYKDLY

SMILES | IC50
COc1ccc(OCCOc2ccc(C=C3C(=O)NC(=O)NC3=O)cc2)cc1 | 200 nM
O=C1NC(=O)C(=Cc2ccc(Oc3ccccc3)cc2)C(=O)N1 | 100 nM
O=C1NC(=O)C(=Cc2ccc(OCCOc3ccc([N+](=O)[O-])cc3)cc2)C(=O)N1 | 2500 nM
Cc1ccc(OCCOc2cccc(C=C3C(=O)NC(=O)NC3=O)c2)cc1 | 800 nM
O=C1NC(=O)C(=Cc2ccc(OCCN3c4ccccc4Oc4ccccc43)cc2)C(=O)N1 | 500 nM
N#Cc1ccc(OCCOc2ccc(C=C3C(=O)NC(=O)NC3=O)cc2)cc1 | 200 nM

Each compound was assayed against T2, Peroxisome proliferator-activated receptor gamma (Mus musculus) (UniProt P37238) (assay: Displacement of [3H]rosiglitazone from mouse PPARgamma receptor at 10 uM by scintillation proximation assay).
T2 sequence (whole entry): T1 sequence (P37238 whole entry)

SMILES | inhibition
Cc1ccc(OCCOc2ccc(C=C3C(=O)NC(=O)NC3=O)cc2)cc1 | < 20%
N#Cc1ccc(OCCCOc2ccc(C=C3C(=O)NC(=O)NC3=O)cc2)cc1 | < 20%
O=C1NC(=O)C(=Cc2ccc(OCCn3ccc4cccnc43)cc2)C(=O)N1 | < 20%
CC(C)c1ccc(OCCCOc2ccc(C=C3C(=O)NC(=O)NC3=O)cc2)cc1 | < 20%
O=C1NC(=O)C(=Cc2ccc(OCCOc3ccc(Br)cc3)cc2)C(=O)N1 | < 20%
O=C1NC(=O)C(=Cc2ccc(OCCn3c4ccccc4c4ccccc43)cc2)C(=O)N1 | < 20%
O=C1NC(=O)C(=Cc2ccc(OCCOc3ccccn3)cc2)C(=O)N1 | < 20%
O=C1NC(=O)C(=Cc2ccc(OCCOc3ccc4ccccc4c3)cc2)C(=O)N1 | < 20%

Source: ChEMBL document CHEMBL1141690, “New PPARgamma ligands based on barbituric acid: virtual screening, synthesis and receptor binding studies” (Bioorg Med Chem Lett, 2008)
